Assays:
5-HT2 receptors = target: T1, 5-HT2 receptors (Rattus norvegicus, UniProt P14842); test: Inhibition of 3H-ketanserin binding to 5-HT2 receptors in rat cortex in vitro; conditions: for IC50: 3H-Ketanserin 0.5 nM, rat cortex, 37° C., 30 min, read-out: Receptor Binding, IC50 5-HT2 3H-Ket
T1 construct: cortical tissue is dissected and weighed; from tissue; host or cells: cortex of male Wistar rats, crude membranes
Procedure: Method in Hyttel, Pharmacology & Toxicology, 61, 126-129, 1987.
Male Wistar (Mol:Wist) rats (125-250 g) are sacrificed and cortical tissue is dissected and weighed. The tissue is homogenized (Ultra Turrax, 10 sec.) in 10 ml of ice-cold 50 mM tris buffer pH 7.7 (at 25° C.). The centrifuge glassware used in this step has been rinsed by sonication for 10 min. in ethanol. The homogenate is centrifuged twice at 20,000 g for 10 min. at 4° C. with rehomogenization of the pellet in 10 ml ice-cold buffer. The final pellet is homogenized in 500 vol (w/v) ice-cold buffer.
Incubation tubes kept on ice in triplicate receive 100 μl of drug solution in water (or water for total binding) and 2000 μl of tissue suspension (final tissue content corresponds to 4 mg original tissue). […] After incubation for 30 min. the samples are filtered under vacuum (0-50 mBar) through Whatman GF/F filters (25 mm). The tubes are rinsed with 5 ml ice-cold buffer which are then poured on the filters. Thereafter, the filters are washed with 2×5 ml of buffer. The filters are placed in counting vials and 4 ml of appropriate scintillation fluid (e.g. Picofluor™15) are added. After shaking for 1 h and storage 2 hrs in the dark the content of radioactivity is determined by liquid scintillation counting. Specific binding is obtained by subtracting the nonspecific binding in the presence of 1 μM mianserin.
(§1) For determination of the inhibition of binding five concentrations of drugs covering 3 decades are used.
The IC50 value is determined as the concentration at which the binding is 50% of the total binding in control samples minus the nonspecific binding in the presence of 1 μM mianserin.

dopamine D-2 receptors = target: T2, dopamine D-2 receptors (Rattus norvegicus, UniProt P61169); test: Inhibition of 3H-spiperone binding to dopamine D-2 receptors in rat corpus striatum in vitro; conditions: for IC50: 3H-spiperone 0.5 nM, rat corpus striatum, 37° C., 10 min, read-out: Receptor Binding, IC50 DA D-2 3H-Spi
T2 construct: striatal tissue is dissected and weighed; from tissue; host or cells: corpus striatum of male Wistar rats, crude membranes
T2 sequence (P61169 whole entry): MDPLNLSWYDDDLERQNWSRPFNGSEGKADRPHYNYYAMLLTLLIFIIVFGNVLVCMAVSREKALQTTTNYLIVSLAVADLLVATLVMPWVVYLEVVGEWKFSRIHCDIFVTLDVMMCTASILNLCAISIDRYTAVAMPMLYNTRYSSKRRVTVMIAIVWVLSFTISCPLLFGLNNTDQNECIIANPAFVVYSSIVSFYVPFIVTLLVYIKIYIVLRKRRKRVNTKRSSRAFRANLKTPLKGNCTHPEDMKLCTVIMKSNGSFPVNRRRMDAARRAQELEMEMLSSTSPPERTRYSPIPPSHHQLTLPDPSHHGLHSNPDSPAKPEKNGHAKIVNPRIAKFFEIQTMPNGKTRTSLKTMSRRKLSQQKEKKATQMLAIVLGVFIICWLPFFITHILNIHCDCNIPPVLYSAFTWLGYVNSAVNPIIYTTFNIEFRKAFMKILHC
Procedure: INHIBITION OF ^3 H-SPIPERONE BINDING TO DOPAMINE D-2 RECEPTORS IN RAT CORPUS STRIATUM IN VITRO
By this method the inhibition by drugs of the binding of ^3 H-spiperone (0.5 nM) to dopamine D-2 receptors in membranes from rat corpus striatum is determined in vitro.
(§2) Male Wistar (Mol:Wistar) rats (125-250 g) are sacrificed and striatal tissue is dissected and weighed. The tissue is homogenized (Ultra Turrax, 10 sec.) in 10 ml of ice-cold 50 mM K-phosphate buffer pH 7.4 (at 25° C.). The homogenate is centrifuged twice at 20,000 g for 10 min. at 4° C. with rehomogenization of the pellet in 10 ml ice-cold buffer. The final pellet is homogenized in 1300 vol (w/v) ice-cold buffer.
Incubation tubes kept on ice in triplicate receive 100 μl of drug solution in water (or water for total binding) and 4000 μl of tissue suspension (final tissue content corresponds to 3.08 mg original tissue). The binding experimental is initiated by addition of 100 μl of ^3 H-spiperone (final concentration 0.5 nM) and by placing the tubes in a 37° C. water bath. After incubation for 10 min. the samples are filtered under vacuum (0-50 mBar) through Whatman GF/F filters (25 mm). The tubes are rinsed with 5 ml ice-cold buffer which are then poured on the filters. Thereafter, the filters are washed with 2×5 ml of buffer. The filters are placed in counting vials and 4 ml of appropriate scintillation fluid (e.g. Picofluor ™15) are added. After shaking for 1 h and storage 2 hrs in the dark the content of radioactivity is determined by liquid scintillation counting. Specific binding is obtained by subtracting the nonspecific binding in the presence of 10 μM of 6,7-ADTN.
as §1
^3 H-Spiperone=[phenyl-4-^3 H]-spiperone from Amersham International plc. England, specific activity 15-25 Ci/mmol.

α1 adrenoceptors = test: Inhibition of 3H-prazosin binding to α1 adrenoceptors in rat brain in vitro; conditions: for IC50: 3H-Prazosin 0.25 nM, rat brain, 25° C., 20 min, read-out: Receptor Binding, IC50 α1 3H-Praz
Procedure: INHIBITION OF ^3 H-PRAZOSIN BINDING TO α1 ADRENOCEPTORS IN RAT BRAIN IN VITRO
Method and results in Hyttel & Larsen, J. Neurochem, 44, 1615-1622, 1985; Skarsfeldt & Hyttel, Eur. J. Pharmacol. 125, 323-340, 1986.
as §2, with “(Mol:Wist)” for “(Mol:Wistar)”, “(125-200” for “(125-250”, “brain” for “striatal”, “[…] Tris” for “mM K-phosphate”, “7,7” for “7.4”, “400” for “1300”
Incubation tubes kept on ice in triplicate receive 100 μl of drug solution in water (or water for total binding) and 4000μl of tissue suspension (final tissue content corresponds to 10 mg original tissue). The binding experiment is initiated by addition of 100 μl of ^3 H-Prazosin (final concentration 0.25 nM) and by placing the tubes in a 25° C. water bath. After incubation for 20 min. the samples are filtered under vacuum (0-50 mBar) through Whatman GF/F filters (25 mm). The tubes are rinsed with 5 ml ice-cold buffer which then are poured on the filters. Thereafter, the filters are washed with 5 ml of buffer. The filters are placed in counting vials and 4 ml of appropriate scintillation fluid (e.g. Picofluor™15) are added. After shaking for 1 h and storage 2 hrs in the dark the content of radioactivity is determined by liquid scintillation counting. Specific binding is obtained by subtracting the nonspecific binding in the presence of 1 μM of Prazosin.
as §1
The measured cpm are plotted against drug concentration on semilogarithmic paper and the best fitting S-shaped curve is drawn. The IC50 value is determined as the concentration at which the binding is 50% of the total binding in control samples minus the nonspecific binding in the presence of 1 μM of Prazosin.
^3 H-Prazosin=[furoyl-5-^3 H]-Prazosin from New England Nuclear, specific activity approximately 20 Ci/mmol.

T1 sequence (P14842 whole entry): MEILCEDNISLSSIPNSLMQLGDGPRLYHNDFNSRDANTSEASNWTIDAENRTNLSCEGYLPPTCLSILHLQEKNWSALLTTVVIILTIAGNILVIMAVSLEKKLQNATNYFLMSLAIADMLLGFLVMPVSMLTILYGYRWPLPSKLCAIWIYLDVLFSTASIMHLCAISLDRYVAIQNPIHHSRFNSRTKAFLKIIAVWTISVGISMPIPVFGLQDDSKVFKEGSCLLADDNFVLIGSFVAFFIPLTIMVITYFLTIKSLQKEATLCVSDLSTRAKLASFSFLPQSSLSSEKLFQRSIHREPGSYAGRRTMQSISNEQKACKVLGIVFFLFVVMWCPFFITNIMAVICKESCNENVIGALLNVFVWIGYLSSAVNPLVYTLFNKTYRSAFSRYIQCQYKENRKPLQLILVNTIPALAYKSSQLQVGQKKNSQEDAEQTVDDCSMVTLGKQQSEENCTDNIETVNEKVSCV

SMILES | affinity to 5-HT2 receptors (in words) (5-HT2 receptors) | IC50 (5-HT2 receptors) | affinity to D-2 receptors (in words) (dopamine D-2 receptors) | IC50 (dopamine D-2 receptors) | affinity to α1 adrenoceptors (in words) (α1 adrenoceptors) | IC50 (α1 adrenoceptors)
OCCN1CCN([C@@H]2C[C@@H](c3ccc(F)cc3)c3ccc(C(F)(F)F)cc32)CC1 (racemic) [Tefludazine, reference compound] | high affinity to all three receptor types | 4.6 nM | high affinity to all three receptor types | 10 nM | high affinity to all three receptor types | 17 nM
O=C1NCCN1CCN1CCN([C@H]2C[C@H](c3ccc(F)cc3)c3cc(C(F)(F)F)ccc32)CC1 (relative stereo) [Compound 1, Trans-1-[2-[4-[3-(4-fluorophenyl)-5-(trifluoromethyl)-2,3-dihydro-1H-inden-11-yl]-1-piperazinyl]ethyl]-2-imidazolidinone] | – | 2.9 nM | – | 760 nM | – | 320 nM
OCCN1CCN([C@@H]2C[C@@H](c3ccc(F)cc3)c3cc(Cl)ccc32)CC1 (relative stereo) [Compound 3, Trans-4-[5-chloro-3-(4-fluorophenyl)-2,3-dihydro-1H-inden-1-yl)-1-piperazine-ethanol] | – | 25 nM | – | 2200 nM | – | 230 nM
OCCN1CCN([C@@H]2C[C@@H](c3ccc(F)cc3)c3cc(C(F)(F)F)ccc32)CC1 (relative stereo) [Compound 5, Trans-4-[3-(4-fluorophenyl)-5-(trifluoromethyl)-2,3-dihydro-1H-inden-1-yl]-1-piperazineethanol] | – | 8.9 nM | – | 1300 nM | – | 380 nM
Cc1cc([C@@H]2C[C@@H](N3CCN(CCO)CC3)c3ccc(Cl)cc32)cs1 (relative stereo) [Compound 6, Trans-4-[5-chloro-3-(2-methyl-4-thienyl)-2,3-dihydro-1H-inden-1-yl]-1-piperazineethanol] | – | 56 nM | – | 2600 nM | – | 1000 nM
Cc1cc([C@@H]2C[C@@H](N3CCN(CCN4CCNC4=O)CC3)c3ccc(Cl)cc32)cs1 (relative stereo) [Compound 7, Trans-1-[2-[4-[5-chloro-3-(2-methyl-4-thienyl)-2,3-dihydro-1H-inden-1-yl]piperazine-1-yl]ethyl]-2-imidazolidinone] | – | 7.9 nM | – | 2800 nM | – | 240 nM
Fc1ccc([C@@H]2C[C@@H](N3CCN(CCN4CCCNC4=S)CC3)c3ccc(Cl)cc32)cc1 (relative stereo) [Compound 32, Trans-1-[2-[4-[5-chloro-3-(4-fluorophenyl)-2,3-dihydro-1H-inden-1-yl]piperazin-1-yl]ethyl]-tetrahydro-2(1H)-pyrimidinethione] | – | 1.5 nM | – | – | – | 170 nM
O=C1NCCN1CCN1CCN([C@@H]2C[C@@H](c3ccc(F)cc3)c3ccc(C(F)(F)F)cc32)CC1 (relative stereo) [Compound 39, reference compound] | – | – | – | 21 nM | – | 8.3 nM
O=C1NCCN1CCN1CCN([C@@H]2C[C@@H](c3ccc(F)cc3)c3ccc(Cl)cc32)CC1 (relative stereo) [Compound 41, reference compound] | – | – | – | 17 nM | – | 3.1 nM
OCCN1CCN([C@H]2C[C@H](c3ccc(F)cc3)c3cc(F)ccc32)CC1 (single isomer, unassigned) [(+)-2] | – | 12 nM | – | – | – | 72 nM
OCCN1CCN([C@H]2C[C@H](c3ccc(F)cc3)c3cc(Cl)ccc32)CC1 (single isomer, unassigned) [(+)-3] | – | 230 nM | – | – | – | 2500 nM
Fc1ccc([C@H]2C[C@H](N3CCNCC3)c3ccc(Cl)cc32)cc1 (single isomer, unassigned) [(+)-10] | – | 3300 nM | – | 28000 nM | – | –
CC(C)N1CCN(CCN2CCN([C@H]3C[C@H](c4ccc(F)cc4)c4cc(Cl)ccc43)CC2)C1=O (single isomer, unassigned) [(+)-11] | – | 75 nM | – | – | – | 340 nM
Fc1ccc([C@@H]2C[C@@H](N3CCN(CCN4CCCNC4=S)CC3)c3ccc(Cl)cc32)cc1 (single isomer, unassigned) [(+)-32, (+)-Trans-1-[2-[4-[5-chloro-3-(4-fluorophenyl)-2,3-dihydro-1H-inden-1-yl]piperazin-1-yl]ethyl]-tetrahydro-2(1H)-pyrimidinethione] | – | 21 nM | – | – | – | 350 nM
OCCN1CCN([C@H]2C[C@H](c3ccc(F)cc3)c3cc(F)ccc32)CC1 (single isomer, unassigned) [(-)-2] | – | 500 nM | – | – | – | 1100 nM
OCCN1CCN([C@H]2C[C@H](c3ccc(F)cc3)c3cc(Cl)ccc32)CC1 (single isomer, unassigned) [(-)-3] | – | 11 nM | – | – | – | 210 nM
CC(C)N1CCN(CCN2CCN([C@@H]3C[C@@H](c4ccc(F)cc4)c4cc(Cl)ccc43)CC2)C1=O (single isomer, unassigned) [(-)-11, (-)-Trans-1-[2-[4-[5-chloro-3-(4-fluorophenyl)-2,3-dihydro-1H-inden-1-yl]piperazin-1-yl]-ethyl]-3-isopropyl-2-imidazolidinone] | – | 1.1 nM | – | – | – | 210 nM
O=C1NCCCN1CCN1CCN([C@@H]2C[C@@H](c3ccc(F)cc3)c3cc(F)ccc32)CC1 (single isomer, unassigned) [(-)-33, (-)-Trans-1-[2-[4-[5-fluoro-3-(4-fluorophenyl)-2,3-dihydro-1H-inden-1-yl]piperazin-1-yl]ethyl]-tetrahydro-2(1H)-pyrimidinone] | – | 57 nM | – | 4600 nM | – | –
O=C1NCCCN1CCN1CCN([C@@H]2C[C@@H](c3ccc(F)cc3)c3cc(Cl)ccc32)CC1 (single isomer, unassigned) [(-)-34, (-)-Trans-1-[2-[4-[5-chloro-3-(4-fluorophenyl)-2,3-dihydro-1H-inden-1-yl]piperazin-1-yl]ethyl]-tetrahydro-2(1H)-pyrimidinone] | – | 1.3 nM | – | – | – | 62 nM

Source: US5643784A, “Indan derivatives” (H, Lundbeck A/S, priority 1990, dated 1997)
